Experimental data from ChEMBL document CHEMBL1208702, “Use of 2-[(18)F]fluoroethylazide for the Staudinger ligation - Preparation and characterisation of GABA(A) receptor binding 4-quinolones” (Bioorg Med Chem Lett, 2010).

Tests used:
Bone [1] = assay: Biodistribution in iv dosed Sprague-Dawley rats bone after 30 mins by gamma counter; type: ADME, organism-based, Bone element; details: rat, in vivo, 0.5 h
[2] = Biodistribution in iv dosed Sprague-Dawley rats large intestine after 30 mins by gamma counter; type: ADME, organism-based; details: rat, in vivo, 0.5 h
[3] = Biodistribution in iv dosed Sprague-Dawley rats bladder and urine after 30 mins by gamma counter; type: ADME, organism-based; details: rat, in vivo, 0.5 h
Brain [4] = assay: Biodistribution in iv dosed Sprague-Dawley rats brain after 30 mins by gamma counter; type: ADME, organism-based; details: rat, in vivo, 0.5 h
Kidney [5] = assay: Biodistribution in iv dosed Sprague-Dawley rats kidneys after 10 mins by gamma counter; type: ADME, organism-based; details: rat, in vivo
Kidney [6] = assay: Biodistribution in iv dosed Sprague-Dawley rats kidneys after 60 mins by gamma counter; type: ADME, organism-based; details: rat, in vivo, 1 h
Lung [7] = assay: Biodistribution in iv dosed Sprague-Dawley rats lung after 0.5 min by gamma counter; type: ADME, organism-based; details: rat, in vivo
Bone [8] = assay: Biodistribution in iv dosed Sprague-Dawley rats bone after 60 mins by gamma counter; type: ADME, organism-based, Bone element; details: rat, in vivo, 1 h
[9] = Biodistribution in iv dosed Sprague-Dawley rats stomach after 2 mins by gamma counter; type: ADME, organism-based; details: rat, in vivo
[10] = Drug uptake in high GABAA expression areas of Wistar rat brain thalamus/striatum cortex at 0.1 MBq/ml after 60 mins by autoradiographic analysis; type: ADME, tissue-based; details: in vivo, 1 h
Brain [11] = assay: Biodistribution in iv dosed Sprague-Dawley rats brain after 10 mins by gamma counter; type: ADME, organism-based; details: rat, in vivo
Liver [12] = assay: Biodistribution in iv dosed Sprague-Dawley rats liver after 10 mins by gamma counter; type: ADME, organism-based; details: rat, in vivo
[13] = Biodistribution in iv dosed Sprague-Dawley rats small intestine after 0.5 min by gamma counter; type: ADME, organism-based; details: rat, in vivo
Muscle tissue [14] = assay: Biodistribution in iv dosed Sprague-Dawley rats muscle after 2 mins by gamma counter; type: ADME, organism-based; details: rat, in vivo
Muscle tissue [15] = assay: Biodistribution in iv dosed Sprague-Dawley rats muscle after 0.5 min by gamma counter; type: ADME, organism-based; details: rat, in vivo
Lung [16] = assay: Biodistribution in iv dosed Sprague-Dawley rats lung after 2 mins by gamma counter; type: ADME, organism-based; details: rat, in vivo
Kidney [17] = assay: Biodistribution in iv dosed Sprague-Dawley rats kidneys after 0.5 min by gamma counter; type: ADME, organism-based; details: rat, in vivo
Kidney [18] = assay: Biodistribution in iv dosed Sprague-Dawley rats kidneys after 2 mins by gamma counter; type: ADME, organism-based; details: rat, in vivo
Blood = assay: Biodistribution in iv dosed Sprague-Dawley rats blood after 10 mins by gamma counter; type: ADME, organism-based; details: rat, in vivo
Brain [19] = assay: Biodistribution in iv dosed Sprague-Dawley rats brain after 0.5 min by gamma counter; type: ADME, organism-based; details: rat, in vivo
Kidney [20] = assay: Biodistribution in iv dosed Sprague-Dawley rats kidneys after 30 mins by gamma counter; type: ADME, organism-based; details: rat, in vivo, 0.5 h
[21] = Drug uptake in Wistar rat brain prefrontal cortex olfactory tubercles at 0.1 MBq/ml after 60 mins by autoradiographic analysis; type: ADME, tissue-based; details: in vivo, 1 h
[22] = Biodistribution in iv dosed Sprague-Dawley rats bladder and urine after 2 mins by gamma counter; type: ADME, organism-based; details: rat, in vivo
Liver [23] = assay: Biodistribution in iv dosed Sprague-Dawley rats liver after 0.5 min by gamma counter; type: ADME, organism-based; details: rat, in vivo
Bone [24] = assay: Biodistribution in iv dosed Sprague-Dawley rats bone after 10 mins by gamma counter; type: ADME, organism-based, Bone element; details: rat, in vivo
[25] = Biodistribution in iv dosed Sprague-Dawley rats large intestine after 10 mins by gamma counter; type: ADME, organism-based; details: rat, in vivo
[26] = Biodistribution in iv dosed Sprague-Dawley rats large intestine after 0.5 min by gamma counter; type: ADME, organism-based; details: rat, in vivo
Spleen [27] = assay: Biodistribution in iv dosed Sprague-Dawley rats spleen after 0.5 min by gamma counter; type: ADME, organism-based; details: rat, in vivo
Muscle tissue [28] = assay: Biodistribution in iv dosed Sprague-Dawley rats muscle after 60 mins by gamma counter; type: ADME, organism-based; details: rat, in vivo, 1 h
[29] = Biodistribution in iv dosed Sprague-Dawley rats small intestine after 30 mins by gamma counter; type: ADME, organism-based; details: rat, in vivo, 0.5 h
Bone [30] = assay: Biodistribution in iv dosed Sprague-Dawley rats bone after 0.5 min by gamma counter; type: ADME, organism-based, Bone element; details: rat, in vivo
Bone [31] = assay: Biodistribution in iv dosed Sprague-Dawley rats bone after 2 mins by gamma counter; type: ADME, organism-based, Bone element; details: rat, in vivo
[32] = Drug uptake in low GABAA expression areas of Wistar rat brain thalamus/striatum cortex at 0.1 MBq/ml after 60 mins by autoradiographic analysis; type: ADME, tissue-based; details: in vivo, 1 h
[33] = Biodistribution in iv dosed Sprague-Dawley rats large intestine after 60 mins by gamma counter; type: ADME, organism-based; details: rat, in vivo, 1 h
Brain [34] = assay: Biodistribution in iv dosed Sprague-Dawley rats brain after 2 mins by gamma counter; type: ADME, organism-based; details: rat, in vivo
Brain [35] = assay: Biodistribution in iv dosed Sprague-Dawley rats brain after 60 mins by gamma counter; type: ADME, organism-based; details: rat, in vivo, 1 h
Spleen [36] = assay: Biodistribution in iv dosed Sprague-Dawley rats spleen after 30 mins by gamma counter; type: ADME, organism-based; details: rat, in vivo, 0.5 h
Lung [37] = assay: Biodistribution in iv dosed Sprague-Dawley rats lung after 60 mins by gamma counter; type: ADME, organism-based; details: rat, in vivo, 1 h

**Q.** Which Drug uptake (Bone [1]) does the source give for `O=C(NCC[18F])c1c[nH]c2ccc(Cc3ccccc3)cc2c1=O` here?
**A.** The Drug uptake was 1.5 %ID.

**Q.** What about the Drug uptake [2] of the same compound?
**A.** Its Drug uptake is 1.7 %ID.

**Q.** What about the Drug uptake [3] of the same compound?
**A.** Its Drug uptake is 4.2 %ID.

**Q.** And the Drug uptake (Brain [4])?
**A.** Its Drug uptake is 0.1 %ID.

**Q.** What about the Drug uptake (Kidney [5]) of the same compound?
**A.** The Drug uptake was 2.1 %ID.

**Q.** And the Drug uptake (Kidney [6])?
**A.** Its Drug uptake is 0.5 %ID.

**Q.** And the Drug uptake (Lung [7])?
**A.** The Drug uptake was 2.9 %ID.

**Q.** What about the Drug uptake (Bone [8]) of the same compound?
**A.** Its Drug uptake is 1.4 %ID.

**Q.** What about the Drug uptake [9] of the same compound?
**A.** Its Drug uptake is 1.2 %ID.

**Q.** What about the Drug uptake [10] of the same compound?
**A.** The Drug uptake was 76%.

**Q.** And the Drug uptake (Brain [11])?
**A.** Its Drug uptake is 0.1 %ID.

**Q.** What about the Drug uptake (Liver [12]) of the same compound?
**A.** The Drug uptake was 33.7 %ID.

**Q.** What about the Drug uptake [13] of the same compound?
**A.** Its Drug uptake is 4.7 %ID.

**Q.** What about the Drug uptake (Muscle tissue [14]) of the same compound?
**A.** Its Drug uptake is 47.3 %ID.

**Q.** What about the Drug uptake (Muscle tissue [15]) of the same compound?
**A.** The Drug uptake was 56.1 %ID.

**Q.** And the Drug uptake (Lung [16])?
**A.** The Drug uptake was 1.5 %ID.

**Q.** And the Drug uptake (Kidney [17])?
**A.** Its Drug uptake is 4 %ID.

**Q.** What about the Drug uptake (Kidney [18]) of the same compound?
**A.** Its Drug uptake is 3.6 %ID.

**Q.** And the Drug uptake (Blood)?
**A.** The Drug uptake was 2.8 %ID.

**Q.** What about the Drug uptake (Brain [19]) of the same compound?
**A.** Its Drug uptake is 0.1 %ID.

**Q.** What about the Drug uptake (Kidney [20]) of the same compound?
**A.** Its Drug uptake is 1.5 %ID.

**Q.** And the Drug uptake [21]?
**A.** The Drug uptake was 60%.

**Q.** What about the Drug uptake [22] of the same compound?
**A.** The Drug uptake was 0 %ID.

**Q.** And the Drug uptake (Liver [23])?
**A.** The Drug uptake was 14.6 %ID.

**Q.** And the Drug uptake (Bone [24])?
**A.** The Drug uptake was 1.7 %ID.

**Q.** And the Drug uptake [25]?
**A.** Its Drug uptake is 1.7 %ID.

**Q.** And the Drug uptake [26]?
**A.** Its Drug uptake is 0.9 %ID.

**Q.** What about the Drug uptake (Spleen [27]) of the same compound?
**A.** The Drug uptake was 0.2 %ID.

**Q.** What about the Drug uptake (Muscle tissue [28]) of the same compound?
**A.** Its Drug uptake is 4.6 %ID.

**Q.** What about the Drug uptake [29] of the same compound?
**A.** Its Drug uptake is 50.3 %ID.

**Q.** What about the Drug uptake (Bone [30]) of the same compound?
**A.** The Drug uptake was 3 %ID.

**Q.** What about the Drug uptake (Bone [31]) of the same compound?
**A.** Its Drug uptake is 3 %ID.

**Q.** And the Drug uptake [32]?
**A.** Its Drug uptake is 76%.

**Q.** What about the Drug uptake [33] of the same compound?
**A.** The Drug uptake was 1.9 %ID.

**Q.** What about the Drug uptake (Brain [34]) of the same compound?
**A.** Its Drug uptake is 0.1 %ID.

**Q.** And the Drug uptake (Brain [35])?
**A.** The Drug uptake was 0 %ID.

**Q.** What about the Drug uptake (Spleen [36]) of the same compound?
**A.** The Drug uptake was 0.1 %ID.

**Q.** What about the Drug uptake (Lung [37]) of the same compound?
**A.** Its Drug uptake is 0.1 %ID.
